Measurements taken from patent publication US12655116B2, “Substituted isophthalic acid diamides” (Bayer Aktiengesellschaft, priority 2020, dated 2026).

Tests used:
PHBPU [1] = experiment: Pre-emergence herbicidal action against PHBPU; assay type: in vivo, Pharbitis purpurea
How it was run: (§1)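 Seeds sown in sandy loam, soil-covered; compound sprayed on soil surface pre-emergence. Application: WP/EC, 600–800 l/ha, 0.2% wetting agent. Readout: visual % damage at 3 weeks.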

POLCO = experiment: Pre-emergence herbicidal action against POLCO; assay type: in vivo, Polygonum convolvulus; details: dosage 80 g/ha
How it was run: as §1

ALOMY [2] = experiment: Pre-emergence herbicidal action against ALOMY; assay type: in vivo, Alopecurus myosuroides; details: 80 g/ha, pre-emergence, scored visually after 3 weeks vs untreated controls (100% = plants have died, 0% = like control plants)
How it was run: as §1

AVEFA [3] = experiment: Post-emergence herbicidal action against AVEFA; assay type: in vivo, Avena fatua; details: 20 g/ha, visual assessment about 3 weeks after treatment, 100% = plants have died, 0% = like control plants
How it was run: (§2)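 Sandy loam, greenhouse; treatment 2–3 weeks after sowing, one-leaf stage. Aqueous suspension or emulsion from WP/EC sprayed on foliage (600–800 l/ha, 0.2% wetting agent). Readout: visual % action, ~3 weeks.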

PHBPU [4] = experiment: Post-emergence herbicidal action against PHBPU; assay type: in vivo, Pharbitis purpurea
How it was run: as §2

MATIN [5] = experiment: Post-emergence herbicidal action against MATIN; assay type: in vivo, Matricaria inodora
How it was run: as §2

MATIN [6] = experiment: Pre-emergence herbicidal action against MATIN; assay type: in vivo, Matricaria inodora
How it was run: as §1

AMARE [7] = experiment: Post-emergence herbicidal action against AMARE; assay type: in vivo, Amaranthus retroflexus; details: 20 g/ha, visual assessment about 3 weeks after treatment, 100% = plants have died, 0% = like control plants
How it was run: as §2

ABUTH [8] = experiment: Pre-emergence herbicidal action against ABUTH; assay type: in vivo, Abutilon theophrasti; details: for Pre-emergence action against ABUTH (herbicidal activity): 80 g/ha, scored visually after 3 weeks vs untreated controls (100% = plants have died, 0% = like control plants); for Pre-emergence action against ABUTH (herbicidal activity in percent): dosage 20 g/ha, scored visually after 3 weeks vs untreated controls, 100% = plants have died, 0% = like control plants
How it was run: as §1

AVEFA [9] = experiment: Pre-emergence herbicidal action against AVEFA; assay type: in vivo, Avena fatua; details: for Pre-emergence action against AVEFA in %: 80 g/ha
How it was run: as §1

VERPE [10] = experiment: Pre-emergence herbicidal action against VERPE; assay type: in vivo, Veronica persica; details: dosage 80 g/ha
How it was run: as §1

VERPE [11] = experiment: Post-emergence herbicidal action against VERPE; assay type: in vivo, Veronica persica; details: 20 g/ha
How it was run: as §2

ECHCG [12] = experiment: Post-emergence herbicidal action against ECHCG; assay type: in vivo, Echinochloa crus-galli
How it was run: as §2

SETVI [13] = experiment: Pre-emergence herbicidal action against SETVI; assay type: in vivo, Setaria viridis
How it was run: as §1

SETVI [14] = experiment: Post-emergence herbicidal action against SETVI; assay type: in vivo, Setaria viridis
How it was run: as §2

DIGSA [15] = experiment: Post-emergence herbicidal action against DIGSA; assay type: in vivo, Digitaria sanguinalis; details: for Post-emergence action against DIGSA in %: 5 g/ha; for Post-emergence action against DIGSA: 20 g/ha
How it was run: as §2

VIOTR [16] = experiment: Post-emergence herbicidal action against VIOTR; assay type: in vivo, Viola tricolor
How it was run: as §2

AMARE [17] = experiment: Pre-emergence herbicidal action against AMARE; assay type: in vivo, Amaranthus retroflexus
How it was run: as §1

ECHCG [18] = experiment: Pre-emergence herbicidal action against ECHCG; assay type: in vivo, Echinochloa crus-galli
How it was run: as §1

ABUTH [19] = experiment: Post-emergence herbicidal action against ABUTH; assay type: in vivo, Abutilon theophrasti; details: visual assessment about 3 weeks after treatment vs untreated controls
How it was run: as §2

DIGSA [20] = experiment: Pre-emergence herbicidal action against DIGSA; assay type: in vivo, Digitaria sanguinalis
How it was run: as §1

VIOTR [21] = experiment: Pre-emergence herbicidal action against VIOTR; assay type: in vivo, Viola tricolor
How it was run: as §1

ALOMY [22] = experiment: Post-emergence herbicidal action against ALOMY; assay type: in vivo, Alopecurus myosuroides; details: visual assessment about 3 weeks after treatment vs untreated controls
How it was run: as §2

[23] = 20 g/ha, scored visually after 3 weeks vs untreated controls, 100% = plants have died, 0% = like control plants
[24] = 80 g/ha, scored visually after 3 weeks vs untreated controls (100% = plants have died, 0% = like control plants)

Compound	Pre-emergence action against PHBPU in % (PHBPU [1]; dosage 80 g/ha) [%]	Pre-emergence action against POLCO in % (POLCO) [%]	Pre-emergence action against ALOMY (herbicidal activity) (ALOMY [2]) [%]	Post-emergence action at 20 g/ha against AVEFA in % (AVEFA [3]) [%]	Post-emergence action against PHBPU in % (PHBPU [4]; dosage 20 g/ha) [%]	Post-emergence action against MATIN in % (MATIN [5]; dosage 20 g/ha) [%]	Pre-emergence action against MATIN in % (MATIN [6]; dosage 20 g/ha) [%]	Pre-emergence action against MATIN in % (MATIN [6]; dosage 80 g/ha) [%]	Post-emergence action at 20 g/ha against AMARE in % (AMARE [7]) [%]	Pre-emergence action against ABUTH (herbicidal activity) (ABUTH [8]) [%]	Pre-emergence action against ABUTH (herbicidal activity in percent) (ABUTH [8]) [%]	Pre-emergence action against AVEFA in % (AVEFA [9]) [%]	Pre-emergence action against VERPE in % (VERPE [10]) [%]	Post-emergence action against VERPE in % (VERPE [11]) [%]	Post-emergence action against ECHCG in % (ECHCG [12]; dosage 20 g/ha) [%]	Pre-emergence action against SETVI in % (SETVI [13]; dosage 80 g/ha) [%]	Post-emergence action against SETVI in % (SETVI [14]; dosage 20 g/ha) [%]	Post-emergence action against DIGSA (DIGSA [15]) [%]	Post-emergence action against VIOTR in % (VIOTR [16]; 5 g/ha) [%]	Post-emergence action against VIOTR in % (VIOTR [16]; 20 g/ha) [%]	other results
CCNC(=O)c1c(C(F)(F)F)ccc(C(=O)Nc2nnnn2CC)c1OC [Example 2-57]	80	90	90	80	90	90	90	100	100	100	100	90	90	90	100	100	100	100	90	100	Post-emergence action against PHBPU in % (PHBPU [4]; dosage 5 g/ha): 80%; Post-emergence action against MATIN in % (MATIN [5]; dosage 5 g/ha): 80%; Post-emergence action against ECHCG in % (ECHCG [12]; dosage 5 g/ha): 100%; Pre-emergence action against SETVI in % (SETVI [13]; dosage 20 g/ha): 80%; Post-emergence action against SETVI in % (SETVI [14]; dosage 5 g/ha): 100%; Post-emergence action against DIGSA in % (DIGSA [15]): 90%; Pre-emergence action against AMARE in % (AMARE [17]; [23]): 100%; Pre-emergence action against AMARE in % (AMARE [17]; [24]): 100%; Pre-emergence action against ECHCG in % (ECHCG [18]; 20 g/ha): 90%; Pre-emergence action against ECHCG in % (ECHCG [18]; 80 g/ha): 100%; Post-emergence action against ABUTH in % (ABUTH [19]; dosage 5 g/ha): 90%; Post-emergence action against ABUTH in % (ABUTH [19]; dosage 20 g/ha): 100%; Pre-emergence action against DIGSA in % (DIGSA [20]; dosage 20 g/ha): 100%; Pre-emergence action against DIGSA in % (DIGSA [20]; dosage 80 g/ha): 100%; Pre-emergence action against VIOTR in % (VIOTR [21]; dosage 20 g/ha): 100%; Pre-emergence action against VIOTR in % (VIOTR [21]; dosage 80 g/ha): 100%; Post-emergence action against ALOMY in % (ALOMY [22]; dosage 20 g/ha): 90%
CCNC(=O)c1c(C(F)F)ccc(C(=O)Nc2nnnn2CC)c1Br [Example 2-226]	100	80	90	80	80	80	90	100	100	80	80	100	100	90	90	100	100	80	90	100	Pre-emergence action against SETVI in % (SETVI [13]; dosage 20 g/ha): 80%; Post-emergence action against SETVI in % (SETVI [14]; dosage 5 g/ha): 100%; Pre-emergence action against AMARE in % (AMARE [17]; [23]): 100%; Pre-emergence action against AMARE in % (AMARE [17]; [24]): 100%; Pre-emergence action against ECHCG in % (ECHCG [18]; 20 g/ha): 100%; Pre-emergence action against ECHCG in % (ECHCG [18]; 80 g/ha): 100%; Post-emergence action against ABUTH in % (ABUTH [19]; dosage 20 g/ha): 90%; Pre-emergence action against VIOTR in % (VIOTR [21]; dosage 20 g/ha): 100%; Pre-emergence action against VIOTR in % (VIOTR [21]; dosage 80 g/ha): 100%; Post-emergence action against ALOMY in % (ALOMY [22]; dosage 20 g/ha): 90%
CCn1nnnc1NC(=O)c1ccc(C(F)(F)F)c(C(=O)NCC(F)F)c1C1CC1 [Example 2-291]	90	80	80	90	90	90	90	100	90	100	100	80	90	80	80	100	90	100	80	90	Pre-emergence action against PHBPU in % (PHBPU [1]; dosage 20 g/ha): 80%; Post-emergence action against PHBPU in % (PHBPU [4]; dosage 5 g/ha): 80%; Post-emergence action against MATIN in % (MATIN [5]; dosage 5 g/ha): 80%; Pre-emergence action against AVEFA (AVEFA [9]; 20 g/ha, scored visually after 3 weeks, 100% = plants have died, 0% = like control plants): 80%; Post-emergence action against ECHCG in % (ECHCG [12]; dosage 5 g/ha): 80%; Post-emergence action against DIGSA in % (DIGSA [15]): 90%; Pre-emergence action against AMARE in % (AMARE [17]; [23]): 100%; Pre-emergence action against AMARE in % (AMARE [17]; [24]): 100%; Pre-emergence action against ECHCG in % (ECHCG [18]; 80 g/ha): 90%; Post-emergence action against ABUTH in % (ABUTH [19]; dosage 5 g/ha): 80%; Post-emergence action against ABUTH in % (ABUTH [19]; dosage 20 g/ha): 80%; Pre-emergence action against DIGSA in % (DIGSA [20]; dosage 20 g/ha): 100%; Pre-emergence action against DIGSA in % (DIGSA [20]; dosage 80 g/ha): 100%; Pre-emergence action against VIOTR in % (VIOTR [21]; dosage 20 g/ha): 100%; Pre-emergence action against VIOTR in % (VIOTR [21]; dosage 80 g/ha): 100%; Post-emergence action against ALOMY in % (ALOMY [22]; dosage 5 g/ha): 80%; Post-emergence action against ALOMY in % (ALOMY [22]; dosage 20 g/ha): 80%
